Here are results for one compound from patent publication US12661362B2, “Methods for the prevention and treatment of hearing loss” (Ting Therapeutics LLC, priority 2020, dated 2026).

Structures are written as SMILES.

The subject of series [1] is zebrafish neuromast HCs. The series is described as follows: Niclosamide/ezetimibe combination hair cell protection in Cisplatin-treated zebrafish (Loewe synergy). It counts as in vivo. To be noted: concentrations above 2 nM, cisplatin 300 μM. As to the method: Now referring to FIGS. 6A-6B, 5 dpf zebrafish were either incubated with vehicle (DMSO), cisplatin alone at 300 μM concentration, cisplatin and ezetimibe (0.002 μM to 13.3 μM), cisplatin and niclosamide (0.02 nM to 18.3 nM), or cisplatin and combination ezetimibe/niclosamide. After 6 hours, animals were transferred to fresh water for 1 hour and then sacrificed and processed for immunohistochemistry and HC count as described above. To further elucidate whether Niclosamide, synergizes with Nrf2 activators to protect zebrafish HCs from Cisplatin damage, we tested the extent of HC damage in presence of Niclosamide and a Nrf2 activator, ezetimibe.
A three-dimensional contour plot (A) showing dose response of neuromast hair cell protection in zebrafish treated with varying concentrations of niclosamide and ezetimibe mapped to synergy distribution. […] Other dose combinations showing synergy are shown in dark blue boxes. Dose combinations with scores of 0 and 1 show additive effect. *P<5×10−2; **P<10−3, ***P<10−4 versus control fish, One-sample t-test run by the Combenefit software44. Data is shown as mean±standard deviation.
Zebrafish were treated with combinations of Niclosamide (ranging from 0.02-18.3 nM) and EZ (ranging from 0.0183-13.3 μM).

In series [2] the test system is HEI-OC1 cells. Nature of the series: Caspase-Glo 3/7 assay in HEI-OC1 cells treated with Cisplatin. It counts as cell-based, mouse. As to the method:
Now referring to FIG. 3A, and FIGS. 3D-3E, compounds protect from cisplatin toxicity in the mouse inner ear cell line. House Ear Institute-Organ of Corti 1 (HEI-OC1) cells (House Research Institute) were maintained in high-glucose Dulbecco's modified Eagle medium supplemented with 10% fetal bovine serum (Life Technologies, USA) at 33° C. and 10% CO2 as previously described (Kalinec et al., 2003). Cells were seeded at 8,000 cells/well in 96 well plates and left to attach overnight. Now referring to FIG. 3A, For the drug screening, HEI-OC1 cells were pretreated with 30 drug candidates at concentrations ranging from 2 nM to 40 μM one hour before receiving cisplatin. The cisplatin dose (50 μM) was based on our previously published dose response curve. The cells were co-incubated with cisplatin and drug candidates for an additional 19 hours prior to Caspase-Glo 3/7 assay (Promega, Madison, WI) as previously shown. Additionally, […] kenpaullone-treated cells were used as positive controls to validate our results. The DMSO concentration in drug preparation was adjusted to 0.1% v/v and it was verified that 0.5% DMSO had no effect on the cell death kinetics (Hall et al., 2014). Results of the assay were run in triplicate and normalized to cisplatin-only and media-only controls. The percent caspase activity was used to determine the relative protective effect of each compound. The luminescence detection representing caspase activity in each well was obtained using a Cytation Hybrid Multi-Mode Reader (Biotek, Winooski, VT, USA). The percent protection of the cells was calculated using caspase 3/7 readouts and the following formula: […]
In the following examples, Niclosamide, 5-chloro-N-(2-chloro-4-nitrophenyl)-2-hydroxy-benzamide, with a ≥95% purity was used for all experiments (Cayman Chemical, USA).

The subject of series [3] is Nrf2. The series is described as follows: nrf2a morpholino knock-down zebrafish exposed to cisplatin and niclosamide. Format: in vivo. The settings on record: non-injected and scrambled control zebrafish; 18.3 nM, cisplatin 300 μM. The protocol:
Additionally to FIGS. 6A-6B, but not shown, 5 dpf zebrafish were incubated for 6 hours with vehicle, niclosamide (2 nM to 1.48 μM) and the nrf2 pathway activator […] (DEM) as a positive control, in order to evaluate the effect of niclosamide on ggcsh, a nrf2 downstream target. Ggcsh was previously validated as a Nrf2 downstream target in zebrafish. (Sheets, 2017). Following incubation, the total RNA was isolated from whole fish and processed to measure the induced expression of nrf2 downstream gene ggcsh. […] Additionally, Nrf2a morpholinos morphlinos were prepared, followed by incubation of the zebrafish morphants with cisplatin and/or niclosamide. Zebrafish eggs were injected with 4.5 ng of scrambled morpholino or nrf2a morpholino (5′-[…] SEQ NO: 1). At 3 dpf non-injected and morphant animals were exposed to vehicle, cisplatin (300 μM), cisplatin+niclosamide 18.3 nM or niclosamide alone for 6 hours. Following 1-hour recovery, animals were fixed and processed for immunohistochemistry. Nrf2a KD was confirmed by analyzing expression of Glutathione S-transferase P1 (gstp1), a downstream target, due to lack of proper antibody to detect Nrf2 protein in zebrafish.

In series [4] the test system is zebrafish neuromast HCs. The series is described as follows: NMDA excitotoxicity in zebrafish neuromast hair cells. It counts as in vivo. The settings on record: 2 nM and 18 nM; 300 μM NMDA. The protocol:
Now referring to FIGS. […], representative samples of the mouse HCs at 32 kHz, the most protected frequency region shown by ABR measurement (FIG. 4E). […] Niclosamide protects NMDA-induced hair cell loss in zebrafish. Application of the N-methyl-d-aspartate (NMDA) to zebrafish neuromast HCs has also been used to mimic glutamate excitotoxicity associated with noise exposure (Katie S. Kindt and Lavinia Sheets, 2018). The results of the HC count following exposure of zebrafish to 300 μM NMDA led to hair-cell loss.
Now referring to FIGS. 5A-5F Niclosamide had protective effects on NIHL in Zebrafish and FVB/NJ mice in vivo. CIHL and NIHL share mechanistic commonalities. Now referring to FIG. 5A, to test whether Niclosamide protects HCs from excitotoxic trauma, a zebrafish model that mimics noise damage was employed, Zebrafish were exposed to the ionotropic glutamate receptor agonist, N-methyl-D-aspartate (NMDA), previously shown to cause progressive HC loss in zebrafish lateral-line organs (Sheets, 2017) with or without niclosamide. 5-dpf larvae were preincubated with 300 μM NMDA for 50 min followed by 2 hours incubation with niclosamide at 2 nM and 18.3 nM.

In series [5] the test system is FVB/NJ mice. The series is described as follows: Safety monitoring of drugs IP in FVB/NJ mice, with or without Cisplatin. It counts as in vivo, mouse. As to the method: To investigate the drugs' effects on mammalian auditory function in vivo, we first treated 5-7 weeks old FVB/NJ mice with […] drug candidates: Niclosamide (10 mg/kg/day), Ingenol (0.3 mg/kg/day), Elesclomol (5 mg/kg/day), for 4 consecutive days (IP) to monitor safety of the drugs. All tested doses were determined based on previous published data showing maximum non-toxic dose through intraperitoneal (IP) injection.
Baseline auditory brainstem response (ABR) were measured on 16 mice divided in 3 groups receiving Ingenol, Elesclomol, and Niclosamide. The mice received the drug doses described above, then on day 2 of drug injection mice also received 30 mg/kg Cisplatin (IP; 4 mice per group).

Setting [6] is: 20 mg/kg/day IP, 4 consecutive days.

`O=C(Nc1ccc([N+](=O)[O-])cc1Cl)c1cc(Cl)ccc1O` [Niclosamide, 5-chloro-N-(2-chloro-4-nitrophenyl)-2-hydroxy-benzamide]: the “HC per neuromast counts, compound alone” value in series [1] is reported as “higher counts”. In series [2] (2 nM to 40 μM tested), the “share of the dosage range tested with some level of protection” value is listed as “over 80%”. Also, in series [2] (HEI-OC1 cells), the “protection against Cisplatin damage compared to kenpaullone” value is reported as “comparable levels of protection to kenpaullone” and the “protection compared to sodium thiosulfate, ebselen, dexamethasone, N-acetylcysteine” value is reported as “better protection than four other benchmark compounds”. The compound further gave a caspase activity in series [2] (at a dosage of ~4.4 μM, Cisplatin 50 μM) of 0%. Also, in series [2] (dose of 4.4 μM, Cisplatin 50 μM), the “caspase-3/7 activity relative to control cells” value is on record as “reduce caspase activity to comparable levels as control cells”. In series [3], the “hair cell number after cotreatment with cisplatin” value is listed as “significantly higher hair cell number”. Further, the “HC survival after NMDA” value in series [4] was “significantly increased HC survival”. In addition, in series [5] (setting [6]), the clinical signs result is “sign of pain and distress including mouse hunch”; the weight loss was 20-30%. Besides, the “weight loss, pain and distress” value in series [5] (Niclosamide 10, Ingenol 0.3, Elesclomol 5 mg/kg/day IP, 4 consecutive days) was “None of the mice showed reduced weight loss or signs of pain and distress”. For the same compound, the “general toxicity versus Cisplatin alone” value in series [5] (combination with Cisplatin 30 mg/kg single injection) is reported as “no general toxicity”. The weight loss entry in series [5] (drug IP daily plus 30 mg/kg Cisplatin IP on day 2) is “less than 10%”. For the same compound, the “weight loss or abnormal behavior” value in series [5] (maximum IP doses approved by IACUC) was “no weight loss or abnormal behavior”. The survival result in series [5] (plus 30 mg/kg Cisplatin, through day 5 post-Cisplatin injection) is given as “all survived”.
